Measurements as given in ChEMBL document CHEMBL3885881, “DrugMatrix”.

Species: Rattus norvegicus
Test: DrugMatrix - Regimen: Daily Repeat
Type: toxicity, organism-based, Sprague-Dawley
Parameters: regimen Daily Repeat, gender Male, age 6-8 weeks
Conditions: in vivo, po, route oral GAVAGE, […]; for ABSOLUTE BASOPHIL / ABSOLUTE EOSINOPHIL / ABSOLUTE LYMPHOCYTE / ABSOLUTE MONOCYTE / ABSOLUTE SEGMENTED NEUTROPHIL / BASOPHIL / EOSINOPHIL / ERYTHROCYTE COUNT / HEMATOCRIT / HEMOGLOBIN / LEUKOCYTE COUNT / LYMPHOCYTE / MEAN CORPUSCULAR HEMOGLOBIN / MEAN CORPUSCULAR HEMOGLOBIN CONCENTRATION / MEAN CORPUSCULAR VOLUME / MONOCYTE / NEUTROPHIL / NUCLEATED RED BLOOD CELLS / PLATELET COUNT: tissue Blood; for ALANINE AMINOTRANSFERASE / ALBUMIN / ALKALINE PHOSPHATASE / ASPARTATE AMINOTRANSFERASE / BLOOD UREA NITROGEN / CARBON DIOXIDE / CHLORIDE / CHOLESTEROL / CREATINE PHOSPHOKINASE / CREATININE / GLUCOSE / LACTATE DEHYDROGENASE / LIPASE / PHOSPHORUS / POTASSIUM / SODIUM / TOTAL BILIRUBIN / TOTAL PROTEIN / URIC ACID: tissue Plasma
[1] = 0 mg/kg, 72 h, dose level Control, time 3 day
[2] = 0 mg/kg, 120 h, dose level Control, time 5 day
[3] = 72 h, dose 4.2 mg/Kg, dose level Low, time 3 day
[4] = 120 h, dose 4.2 mg/Kg, dose level Low, time 5 day

## O=NN(CCCl)C(=O)NC1CCCCC1 [LOMUSTINE]
[1]
  ABSOLUTE BASOPHIL: 0 CELLS/uL
  ABSOLUTE EOSINOPHIL: 70.67 CELLS/uL
  ABSOLUTE LYMPHOCYTE: 12761.5 CELLS/uL
  ABSOLUTE MONOCYTE: 214.17 CELLS/uL
  ABSOLUTE SEGMENTED NEUTROPHIL: 987 CELLS/uL
  BASOPHIL: 0%
  EOSINOPHIL: 0.5%
  ERYTHROCYTE COUNT: 5.61 x10E6/uL
  HEMATOCRIT: 35.22%
  HEMOGLOBIN: 13.57 G/DL
  LEUKOCYTE COUNT: 14.03 x10E3/uL
  LYMPHOCYTE: 91%
  MEAN CORPUSCULAR HEMOGLOBIN: 24.25 pg
  MEAN CORPUSCULAR HEMOGLOBIN CONCENTRATION: 38.52 G/DL
  MEAN CORPUSCULAR VOLUME: 62.9 fL
  MONOCYTE: 1.5%
  NEUTROPHIL: 7%
  NUCLEATED RED BLOOD CELLS: 0 /100WBC
  PLATELET COUNT: 997.5 x10E3/uL
  ALANINE AMINOTRANSFERASE: 66.5 u/L
  ALBUMIN: 3.98 G/DL
  ALKALINE PHOSPHATASE: 350 u/L
  ASPARTATE AMINOTRANSFERASE: 83.83 u/L
  BLOOD UREA NITROGEN: 12.33 mg/dL
  CARBON DIOXIDE: 30.33 mmol/L
  CHLORIDE: 100 MEQ/L
  CHOLESTEROL: 75 mg/dL
  CREATINE PHOSPHOKINASE: 200 u/L
  CREATININE: 0.17 mg/dL
  GLUCOSE: 170 mg/dL
  LACTATE DEHYDROGENASE: 89.33 u/L
  LIPASE: 10.33 u/L
  PHOSPHORUS: 10.88 mg/dL
  POTASSIUM: 6.13 MEQ/L
  SODIUM: 140.53 MEQ/L
  TOTAL BILIRUBIN: 0.2 mg/dL
  TOTAL PROTEIN: 5.67 G/DL
  URIC ACID: 1.6 mg/dL
[2]
  ABSOLUTE BASOPHIL: 0 CELLS/uL
  ABSOLUTE EOSINOPHIL: 0 CELLS/uL
  ABSOLUTE LYMPHOCYTE: 9526.67 CELLS/uL
  ABSOLUTE MONOCYTE: 134.17 CELLS/uL
  ABSOLUTE SEGMENTED NEUTROPHIL: 922.5 CELLS/uL
  BASOPHIL: 0%
  EOSINOPHIL: 0%
  ERYTHROCYTE COUNT: 5.58 x10E6/uL
  HEMATOCRIT: 34.78%
  HEMOGLOBIN: 13.5 G/DL
  LEUKOCYTE COUNT: 10.58 x10E3/uL
  LYMPHOCYTE: 90.17%
  MEAN CORPUSCULAR HEMOGLOBIN: 24.27 pg
  MEAN CORPUSCULAR HEMOGLOBIN CONCENTRATION: 38.82 G/DL
  MEAN CORPUSCULAR VOLUME: 62.48 fL
  MONOCYTE: 1.17%
  NEUTROPHIL: 8.67%
  NUCLEATED RED BLOOD CELLS: 0.17 /100WBC
  PLATELET COUNT: 807.17 x10E3/uL
  ALANINE AMINOTRANSFERASE: 66.83 u/L
  ALBUMIN: 3.73 G/DL
  ALKALINE PHOSPHATASE: 286.17 u/L
  ASPARTATE AMINOTRANSFERASE: 142.33 u/L
  BLOOD UREA NITROGEN: 14.67 mg/dL
  CARBON DIOXIDE: 25.5 mmol/L
  CHLORIDE: 89.17 MEQ/L
  CHOLESTEROL: 75.17 mg/dL
  CREATINE PHOSPHOKINASE: 310.67 u/L
  CREATININE: 0.2 mg/dL
  GLUCOSE: 153 mg/dL
  LACTATE DEHYDROGENASE: 1594 u/L
  LIPASE: 14.83 u/L
  PHOSPHORUS: 11.28 mg/dL
  POTASSIUM: 8.46 MEQ/L
  SODIUM: 126.88 MEQ/L
  TOTAL BILIRUBIN: 0.37 mg/dL
  TOTAL PROTEIN: 5.53 G/DL
  URIC ACID: 1.52 mg/dL
[3]
  ABSOLUTE BASOPHIL: 0 CELLS/uL
  ABSOLUTE EOSINOPHIL: 32.67 CELLS/uL
  ABSOLUTE LYMPHOCYTE: 10341.33 CELLS/uL
  ABSOLUTE MONOCYTE: 0 CELLS/uL
  BASOPHIL: 0%
  EOSINOPHIL: 0.33%
  ERYTHROCYTE COUNT: 5.55 x10E6/uL
  HEMATOCRIT: 34.1%
  HEMOGLOBIN: 13.57 G/DL
  LEUKOCYTE COUNT: 10.97 x10E3/uL
  LYMPHOCYTE: 94.33%
  MEAN CORPUSCULAR HEMOGLOBIN: 24.43 pg
  MEAN CORPUSCULAR HEMOGLOBIN CONCENTRATION: 39.77 G/DL
  MEAN CORPUSCULAR VOLUME: 61.4 fL
  MONOCYTE: 0%
  NEUTROPHIL: 5.33%
  NUCLEATED RED BLOOD CELLS: 0 /100WBC
  PLATELET COUNT: 1095 x10E3/uL
  ALANINE AMINOTRANSFERASE: 51.33 u/L
  ALBUMIN: 3.83 G/DL
  ALKALINE PHOSPHATASE: 333.67 u/L
  ASPARTATE AMINOTRANSFERASE: 87.33 u/L
  BLOOD UREA NITROGEN: 11.33 mg/dL
  CARBON DIOXIDE: 25.67 mmol/L
  CHLORIDE: 103 MEQ/L
  CHOLESTEROL: 70 mg/dL
  CREATINE PHOSPHOKINASE: 944.67 u/L
  CREATININE: 0.19 mg/dL
  GLUCOSE: 199 mg/dL
  LACTATE DEHYDROGENASE: 127 u/L
  LIPASE: 10.33 u/L
  PHOSPHORUS: 11.7 mg/dL
  POTASSIUM: 5.37 MEQ/L
  SODIUM: 142.27 MEQ/L
  TOTAL BILIRUBIN: 0.1 mg/dL
  TOTAL PROTEIN: 5.5 G/DL
  URIC ACID: 1.6 mg/dL
[4]
  ABSOLUTE BASOPHIL: 0 CELLS/uL
  ABSOLUTE EOSINOPHIL: 32 CELLS/uL
  ABSOLUTE LYMPHOCYTE: 5295.33 CELLS/uL
  ABSOLUTE MONOCYTE: 16 CELLS/uL
  ABSOLUTE SEGMENTED NEUTROPHIL: 290 CELLS/uL
  BASOPHIL: 0%
  EOSINOPHIL: 0.67%
  ERYTHROCYTE COUNT: 5.43 x10E6/uL
  HEMATOCRIT: 33.87%
  HEMOGLOBIN: 13.53 G/DL
  LEUKOCYTE COUNT: 5.63 x10E3/uL
  LYMPHOCYTE: 94%
  MEAN CORPUSCULAR HEMOGLOBIN: 24.9 pg
  MEAN CORPUSCULAR HEMOGLOBIN CONCENTRATION: 39.97 G/DL
  MEAN CORPUSCULAR VOLUME: 62.43 fL
  MONOCYTE: 0.33%
  NEUTROPHIL: 5%
  NUCLEATED RED BLOOD CELLS: 0 /100WBC
  PLATELET COUNT: 1171.33 x10E3/uL
  ALANINE AMINOTRANSFERASE: 53.33 u/L
  ALBUMIN: 4.17 G/DL
  ALKALINE PHOSPHATASE: 336 u/L
  ASPARTATE AMINOTRANSFERASE: 97.33 u/L
  BLOOD UREA NITROGEN: 10 mg/dL
  CARBON DIOXIDE: 31.33 mmol/L
  CHLORIDE: 101 MEQ/L
  CHOLESTEROL: 63.33 mg/dL
  CREATINE PHOSPHOKINASE: 631.67 u/L
  CREATININE: 0.13 mg/dL
  GLUCOSE: 157 mg/dL
  LACTATE DEHYDROGENASE: 132 u/L
  LIPASE: 11 u/L
  PHOSPHORUS: 10.57 mg/dL
  POTASSIUM: 5.78 MEQ/L
  SODIUM: 147.05 MEQ/L
  TOTAL BILIRUBIN: 0.13 mg/dL
  TOTAL PROTEIN: 5.93 G/DL
  URIC ACID: 0.77 mg/dL
